# Measured values: patent US6660769B1, “N substituted 3-amino-2,2-di-c-alkyl-1,4-butyrolactones and 1,4-thiobutyrolactones for use as promoter of γ-aminobutyric acid activity and for treating nervous disorders and preparation method” (priority 1999, dated 2003)
# Columns and labels:
# [1] = target: T1, α1β2γ2 recombinant GABA-A receptors (Homo sapiens, UniProt P14867+P18507+P47870); experiment: cell-based; conditions: α1β2γ2
# T1 construct: expressed in transfected cells; host or cells: Xenopus laevis oocytes injected with cRNA
# [2] = target: T2, α1β1 GABA-A recombinant receptors (Homo sapiens, UniProt P14867+P18505); experiment: Two-electrode voltage clamp, modulation of GABA currents in Xenopus oocytes; assay type: cell-based
# T2 construct: expressed in transfected cells; host or cells: Xenopus laevis oocytes injected with cRNA
# T2 sequence (P14867 28-456): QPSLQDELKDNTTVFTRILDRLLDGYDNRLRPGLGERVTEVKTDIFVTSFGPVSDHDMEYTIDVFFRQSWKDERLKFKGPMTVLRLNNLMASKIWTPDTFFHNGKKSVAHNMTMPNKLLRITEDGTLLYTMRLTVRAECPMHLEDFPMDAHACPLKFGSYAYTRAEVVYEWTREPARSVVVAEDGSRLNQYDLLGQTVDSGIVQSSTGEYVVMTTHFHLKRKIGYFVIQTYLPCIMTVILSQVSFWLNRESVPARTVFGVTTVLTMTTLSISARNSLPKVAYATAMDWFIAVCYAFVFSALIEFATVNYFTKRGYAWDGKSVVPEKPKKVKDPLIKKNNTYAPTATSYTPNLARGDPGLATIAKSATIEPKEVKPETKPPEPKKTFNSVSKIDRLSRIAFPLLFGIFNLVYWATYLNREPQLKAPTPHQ
# T2 sequence (P18505 26-474): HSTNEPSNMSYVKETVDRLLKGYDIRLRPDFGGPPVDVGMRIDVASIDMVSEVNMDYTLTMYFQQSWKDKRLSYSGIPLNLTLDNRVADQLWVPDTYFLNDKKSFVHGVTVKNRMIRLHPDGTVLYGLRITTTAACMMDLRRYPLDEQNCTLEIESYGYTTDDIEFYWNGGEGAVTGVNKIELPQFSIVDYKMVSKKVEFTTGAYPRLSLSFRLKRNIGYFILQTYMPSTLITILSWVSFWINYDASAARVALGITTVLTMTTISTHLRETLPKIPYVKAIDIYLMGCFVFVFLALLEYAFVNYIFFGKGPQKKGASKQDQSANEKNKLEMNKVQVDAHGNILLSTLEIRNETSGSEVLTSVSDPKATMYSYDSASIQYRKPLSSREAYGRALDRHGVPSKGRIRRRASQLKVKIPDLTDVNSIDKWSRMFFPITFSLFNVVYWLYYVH
# Experimental: (§1) The compounds synthesized are also studied for their ability to cause opening of the channel of the GABA-A receptor or to allosterically modulate the currents caused by GABA. For this purpose, the GABA-A recombinant receptors are expressed in Xenopus oocytes. Briefly, Xenopus laevis oocytes are prepared, injected and defolliculated and the currents are recorded in the way described (E. Sigel, J. Physiol., 1987, 386, 73 and E. Sigel, R. Baur, G. Trube, H. Möhler, P. Malherbe, Neuron, 1990, 5, 703). The oocytes are injected with 50 nl of cRNA dissolved in 5 mM of K-Hepes (pH 6.8). This solution comprises the transcripts coding for the various subunits at a concentration of 10 nM for α1, 10 nM for β2 and 50 nM for γ2. The RNA transcripts are synthesized from linearized plasmids encoding the desired protein using the message machine kit (Ambion) according to the recommendations of the manufacturers. A poly(A) tail of approximately 300 residues is added to the transcripts using yeast poly(A) polymerase (USB or Amersham). The cRNA combinations are coprecipitated from ethanol and stored at −20° C. The transcripts are quantified on agarose gels, after having been stained with the RNA stain Radiant Red (Bio-Rad), by comparing the intensities of the stainings with various amounts of molecular weight markers (RNA-Ladder, Gibco-BRL). The electrophysiological experiments are carried out by the two-electrode voltage clamp method at a holding potential of −80 mV. The medium comprises 90 mM of NaCl, 1 mM of KCl, 1 mM of MgCl2, 1 mM of CaCl2 and 10 mM of Na-Hepes (pH 7.4). GABA is applied for 20 s and a washing period of 4 min is allowed in order to provide for the complete […]. The perfusion system is cleaned between the applications of the compounds by washing with dimethyl sulfoxide to prevent contamination. The compounds are applied at a concentration of 100 microM in the absence of GABA in order to see whether they can act as channel agonists. To study the allosteric modulation, GABA is first of all applied alone and then in combination with either […] or 100 microM of compounds.
# (§2) Thus, it is observed that the compound R-30 (100 μM) produces a 5 times greater stimulation of the GABA currents in the receptors comprising the β2 subunits with respect to the receptors carrying only the β1 subunit (table 4). At 10 μM, the compound R-30 produces a stimulation only in the receptors comprising the β2 subunit. The anticonvulsant loreclezole similarly enhances the activity of the GABA-A receptor by interacting with a site present on the receptors comprising the β2 subunit (and the β3 subunit) but not present on the receptors comprising the β1 subunit (P. B. Wingrove, K. A. Wafford, C. Bain, P. J. Whiting, Proc. Natl. Acad. Sci. USA, 1994, 91, 4569). […] The compounds of the present invention therefore appear to stimulate the activity of GABA by acting on a different site from that of α-EMTBL and related compounds, despite the apparent structural resemblance of these two classes of compounds.
# [3] = system: α2β2 GABA-A recombinant receptors; experiment: as above; assay type: cell-based; conditions: for % of stimulation of the GABA currents: α2β2
# Experimental: as §1, §2
# [4] = system: GABA-A receptors comprising β2 or β3 subunits versus β1 subunit; conditions: Wingrove et al. 1994; cited from earlier work
# T1 sequence (P47870 25-512 limits assumed, one chain of several): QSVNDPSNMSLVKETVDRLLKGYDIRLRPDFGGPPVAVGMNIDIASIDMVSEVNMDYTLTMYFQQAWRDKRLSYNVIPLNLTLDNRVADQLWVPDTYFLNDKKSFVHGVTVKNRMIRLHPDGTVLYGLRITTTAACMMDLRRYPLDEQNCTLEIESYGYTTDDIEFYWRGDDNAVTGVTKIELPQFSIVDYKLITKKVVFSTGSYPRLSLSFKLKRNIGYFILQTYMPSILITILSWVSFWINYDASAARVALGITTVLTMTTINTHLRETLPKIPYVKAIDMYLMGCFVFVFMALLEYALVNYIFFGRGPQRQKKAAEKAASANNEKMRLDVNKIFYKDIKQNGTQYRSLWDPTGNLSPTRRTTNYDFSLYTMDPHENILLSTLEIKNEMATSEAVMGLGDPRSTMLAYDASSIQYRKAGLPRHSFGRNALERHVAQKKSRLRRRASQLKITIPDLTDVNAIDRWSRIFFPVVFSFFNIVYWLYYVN
# T1 sequence (P18507 40-475, one chain of several): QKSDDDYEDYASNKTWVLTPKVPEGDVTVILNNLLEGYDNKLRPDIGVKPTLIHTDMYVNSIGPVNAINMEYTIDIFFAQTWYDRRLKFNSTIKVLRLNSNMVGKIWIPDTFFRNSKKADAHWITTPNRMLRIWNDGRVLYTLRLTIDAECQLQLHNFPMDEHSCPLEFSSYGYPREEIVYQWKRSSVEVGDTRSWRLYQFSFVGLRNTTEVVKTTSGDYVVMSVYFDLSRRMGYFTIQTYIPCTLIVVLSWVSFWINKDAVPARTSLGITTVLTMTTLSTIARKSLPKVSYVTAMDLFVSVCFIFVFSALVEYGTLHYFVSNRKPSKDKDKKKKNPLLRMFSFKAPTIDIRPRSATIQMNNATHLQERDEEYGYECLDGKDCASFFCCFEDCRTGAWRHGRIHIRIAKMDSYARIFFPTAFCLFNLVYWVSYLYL
molecule,measurement,setting,value
"3-(R)-Benzyloxycarbonylamino-3,3-di(C-propyl)-1,4-butyrolactone [Compound R-30]",% of stimulation of the GABA currents,[1]; 10 μM,+51 ± 94%
same,% of stimulation of the GABA currents,[1]; 100 μM,+279 ± 94%
same,power relative to the corresponding S isomer in stimulating GABA currents,[1],twice as powerful
same,% of stimulation of the GABA currents,[2]; 10 μM,−5 ± 11%
same,% of stimulation of the GABA currents,[2]; 100 μM,+92 ± 28%
same,% of stimulation of the GABA currents,[3]; 10 μM,+78 ± 4%
same,times greater stimulation of the GABA currents in receptors comprising β2 subunits with respect to β1 only,[3]; 100 μM,5 times
same,% of stimulation of the GABA currents,[3]; 100 μM,+588 ± 166%
Cl/C(=C\n1cncn1)c1ccc(Cl)cc1Cl [loreclezole],affinity for receptors comprising β2 or β3 subunits relative to receptors comprising the β1 subunit,[4],300 times
